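Briefly, cells in 96-well plates were exposed to five compound concentrations for 48 h, and endpoints were estimated by linear interpolation. The concentration for 50% growth inhibition is given as GI50. At the TGI there is no net growth.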
Experiments:
Experiment in all cases: NCI tumour cell line growth inhibition, 48 h
[1] = tested on: SNB-19 CNS
[2] = tested on: OVCAR-5 ovarian
[3] = tested on: IGROV1 ovarian
[4] = tested on: UACC-62 melanoma
[5] = tested on: RXF 393 renal
[6] = tested on: NCI-H460 lung
[7] = tested on: TK-10 renal
[8] = tested on: A498 renal
[9] = tested on: SNB-75 CNS
[10] = tested on: KM12 colon
[11] = tested on: SW-620 colon
[12] = tested on: T-47D breast
[13] = tested on: A549 NSCLC
[14] = tested on: NCI-H23 lung
[15] = tested on: NCI-H226 lung
[16] = tested on: OVCAR-3 ovarian
[17] = tested on: SK-MEL-28 melanoma
[18] = tested on: EKVX NSCLC
[19] = tested on: ACHN renal
[20] = tested on: HT29 colon
[21] = tested on: HS 578T breast
[22] = tested on: COLO 205 colon
[23] = tested on: SF-268 CNS
[24] = tested on: HL-60(TB) leukemia
[25] = tested on: CAKI-1 renal
[26] = tested on: OVCAR-4 ovarian
[27] = tested on: MALME-3M melanoma
[28] = tested on: HOP-62 NSCLC
[29] = tested on: MCF7 breast
[30] = tested on: LOX IMVI melanoma
[31] = tested on: SF-539 CNS
[32] = tested on: BT-549 breast
[33] = tested on: CCRF-CEM leukemia
[34] = tested on: HCC-2998 colon
[35] = tested on: SN12C renal
[36] = tested on: HCT-116 colon
[37] = tested on: NCI-H522 lung
[38] = tested on: U251 CNS
[39] = tested on: HOP-92 NSCLC
[40] = tested on: SK-OV-3 ovarian
[41] = tested on: SK-MEL-2 melanoma
[42] = tested on: SR leukemia
[43] = tested on: K-562 leukemia
[44] = tested on: SF-295 CNS
[45] = tested on: SK-MEL-5 melanoma
[46] = tested on: HCT-15 colon
[47] = tested on: MDA-MB-435
[48] = tested on: MOLT-4 leukemia
[49] = tested on: M14 melanoma
[50] = tested on: 786-0 renal
[51] = tested on: OVCAR-8 ovarian
[52] = tested on: UO-31 renal
[53] = tested on: MDA-MB-231 breast
[54] = tested on: NCI/ADR-RES ovarian
[55] = tested on: DU-145 prostate
[56] = tested on: UACC-257 melanoma
[57] = tested on: PC-3 prostate

## Cc1ccc(/C(=C/C=C(C#N)C#N)Sc2ccccn2)cc1
[1]
  GI50: 10.1 µM
  TGI: > 45.5 µM
[2]
  GI50: 4.13 µM
  TGI: 13.9 µM
[3]
  GI50: 4.79 µM
  TGI: 17.4 µM
[4]
  GI50: 2.51 µM
  TGI: 7.23 µM
[5]
  GI50: 15.6 µM
  TGI: > 28.1 µM
[6]
  GI50: 4.62 µM
  TGI: 21 µM
[7]
  GI50: 3.02 µM
  TGI: 12.1 µM
[8]
  GI50: 11.6 µM
  TGI: 24 µM
[9]
  GI50: 5.18 µM
  TGI: 18.4 µM
[10]
  GI50: 3.33 µM
  TGI: 20.2 µM
[11]
  GI50: 0.474 µM
  TGI: 1.96 µM
[12]
  GI50: 4 µM
  TGI: > 24.7 µM
[13]
  GI50: 12.3 µM
  TGI: 31.8 µM
[14]
  GI50: 3.68 µM
  TGI: 10.9 µM
[15]
  GI50: 2.53 µM
  TGI: 7.06 µM
[16]
  GI50: 2.09 µM
  TGI: 8.25 µM
[17]
  GI50: 2.08 µM
  TGI: 4.51 µM
[18]
  GI50: 14.6 µM
  TGI: 31.1 µM
[19]
  GI50: 1.83 µM
  TGI: 3.52 µM
[20]
  GI50: 2.89 µM
  TGI: 8.41 µM
[21]
  GI50: 2.46 µM
  TGI: 8.32 µM
[22]
  GI50: 1.72 µM
  TGI: 3.79 µM
[23]
  GI50: 3.37 µM
  TGI: 12.3 µM
[24]
  GI50: 0.328 µM
  TGI: 3.72 µM
[25]
  GI50: 5.62 µM
  TGI: 11.8 µM
[26]
  GI50: 3.01 µM
  TGI: 11.6 µM
[27]
  GI50: 4.09 µM
  TGI: 17.3 µM
[28]
  GI50: 6.5 µM
  TGI: 18 µM
[29]
  GI50: 4.62 µM
  TGI: 36 µM
[30]
  GI50: 1.83 µM
  TGI: 4.05 µM
[31]
  GI50: 2.08 µM
  TGI: 6.44 µM
[32]
  GI50: 2.59 µM
  TGI: 6.85 µM
[33]
  GI50: 0.168 µM
  TGI: 0.575 µM
[34]
  GI50: 3.85 µM
  TGI: 8.84 µM
[35]
  GI50: 1.91 µM
  TGI: 4.72 µM
[36]
  GI50: 2.35 µM
  TGI: 5.71 µM
[37]
  GI50: 6.49 µM
  TGI: 19.6 µM
[38]
  GI50: 5.02 µM
  TGI: 20.3 µM
[39]
  GI50: 12.6 µM
  TGI: 31.7 µM
[40]
  GI50: 19.6 µM
  TGI: 65.8 µM
[41]
  GI50: 7.15 µM
  TGI: 35.6 µM
[42]
  GI50: 3.06 µM
  TGI: 10.4 µM
[43]
  GI50: 1.55 µM
  TGI: 10.8 µM
[44]
  GI50: 8.72 µM
  TGI: 22.8 µM
[45]
  GI50: 2.51 µM
  TGI: 7.55 µM
[46]
  GI50: 4.09 µM
  TGI: 15.8 µM
[47]
  GI50: 4.79 µM
  TGI: 13.3 µM
[48]
  GI50: 2.01 µM
  TGI: 6.32 µM
[49]
  GI50: 2.69 µM
  TGI: 6.29 µM
[50]
  GI50: 2.15 µM
  TGI: 5.64 µM
[51]
  GI50: 7.41 µM
  TGI: 24.3 µM
[52]
  GI50: 3.21 µM
[53]
  GI50: 2.3 µM
  TGI: 7.45 µM
[54]
  GI50: 4.63 µM
  TGI: 13.2 µM
[55]
  GI50: 2.28 µM
  TGI: 6.06 µM
[56]
  GI50: 14.6 µM
  TGI: 28.1 µM
[57]
  GI50: 4.65 µM
  TGI: > 20.5 µM

Source: PubChem BioAssay (NCI)
